Laboratory results from US6815542B2 (priority 2000, dated 2004).

What was measured:
IMP dehydrogenase = details: cited from earlier work
[1] = Oral administration in rats over four weeks (clinical pathology); assay type: in vivo; details: 180 mg/kg over four weeks
Description: Furthermore, it is contemplated that treatment of a viral disease with Levovirin is predominantly based on the modulation of the Th1/Th2 balance towards a Th1 dominated response, and not predominantly based on a direct antiviral effect. The term “direct antiviral” effect or activity as used herein refers to an immediate effect or activity of a drug on viral assembly or replication. In contrast, a reduction of viral activity or replication that is at least in part mediated by one or more components of the immune system is not considered a “direct antiviral” effect or activity. Likewise, it should be appreciated that a relative reduction of the Th2 response during a treatment may be especially advantageous in diseases that are correlated with an increased Th2 response (e.g., HCV infection).

[2] = preliminary toxicology studies; cited from earlier work
ten different viruses = details: compared with Ribavirin; cited from earlier work

## NC(=O)c1ncn([C@@H]2O[C@H](CO)[C@@H](O)[C@H]2O)n1 [Ribavirin, 1-β-D-ribofuranosyl-1,2,4-triazole-3-carboxamide]
IMP dehydrogenase
  inhibition of IMP dehydrogenase: inhibitor of IMP dehydrogenase
[1]
  clinical pathology after oral administration: significant hemolytic anemia and leukopenia

## N=C(N)c1ncn([C@@H]2O[C@H](CO)[C@@H](O)[C@H]2O)n1 [Viramidine]
IMP dehydrogenase
  inhibition of IMP dehydrogenase: inhibitor of IMP dehydrogenase
[2]
  toxicity relative to Ribavirin: less toxic than Ribavirin
Ten different viruses
  antiviral activity: active in ten different viruses—comparable to Ribavirin

## NC(=O)c1ncn([C@H]2O[C@@H](CO)[C@H](O)[C@@H]2O)n1 [Levovirin]
[1]
  clinical pathology after oral administration: did not produce any observable clinical pathology
